Measurements from patent US5053070A, “Pyrimidine derivatives, preparation processes thereof, herbicide containing the same, and herbicidal compositions containing the same along with other active ingredient” (Mitsui Toatsu Chemicals, Incorporated, priority 1988, dated 1991).
In brackets after ≈: the same amount, converted by molar mass.

Experiments:
[1] = test system: ALS (acetolactate syntase); experiment: ALS enzyme assay (Test 1); assay type: biochemical, barnyardgrass; settings: 1,000 ppm (0.5 mg/0.5 ml)
Method: (§1) To determine the selectivity in enzyme level between crops and weeds, and ALS enzyme assay was conducted using pea as a representative of broadleaf crops and barnyardgrass as a representative of narrowleaf weeds.
(§2) After seeds of pea and barnyardgrass were allowed to germinate at 25° C. for 8-14 days in a dark place, partially-purified suspensions (Suspensions A) of acetolactate syntase were separately obtained from seedlings in accordance with the method described in the literature, Plant Physiology, 75, 827-831.
(§3) In a test tube, 0.5 mg of one of test compounds was weighed, followed by the addition of 0.15 ml of a 20 mM K2 HPO4 solution and 0.25 ml of a reaction substrate medium which consisted of 40 mM of K2 HPO4, 40 mM of sodium pyruvate, 1 mM of TPP, 1 mM of MgCl2 and 20 μM of FAD so that 0.4 ml of a reaction solution (Solution B) was prepared. Added to 0.4 ml of Solution B was 0.1 ml of suspension A. After the resultant mixture was shaken for 1 hour in a thermostat water bath controlled at 30° C., 50 μl of 6N sulfuric acid were added to terminate the reaction.
(§4) Next, the reaction-terminated liquid mixture was transferred into a thermostat water bath controlled at 60° C. and was heated for 15 minutes. Thereafter, 0.5 ml of a 0.5% creatine solution and 0.5 ml of a 5% alkaline α-naphthol solution were added, and the resultant mixture was maintained at 60° C. for 15 minutes. As a result, the test solution developed a pink-red color. After the above operation, the absorbance of the test solution at 525 nm was measured by a spectrophotometer (Absorbance 1 of Test Compound).
(§5) On the other hand, the absorbance (Absorbance 2 of Blank) of a solution obtained by subjecting a portion of Solution B, said portion being free of the test compound, to the above operation and the absorbance (Absorbance 3 of sulfuric acid terminated) of another solution obtained by subjecting another portion of Solution B, said portion containing 50 μl of 6N sulfuric acid as a test compound, were measured at the same time. Based on the values of the respective measurements, the enzyme assay at 1,000 ppm (0.5 mg/0.5 ml) of each compound was determined. [formula]

foxtail meadow = experiment: Upland foliar application test (Test 3); assay type: in vivo; settings: 30 g ai/a, foliar spray at 2-3 leaves, 30th day
Method: (§6) Resin-made 1/10000-are pots were filled with the soil of an upland field. Redroot pigweed, common lambsquarters, foxtail meadow, johnsongrass, barnyardgrass, green foxtail, large crabgrass, soybean, peanut and cotton were separately seeded and were allowed to germinate in a green house. When each plant grew to the stage of 2-3 leaves, an emulsion formulated from a predetermined amount of each test compound in a similar manner to the method described in Formulation Example 11 was diluted with water to a predetermined dilution rate and then sprayed at an application rate equal to 5 l per are onto the foliage of each plant by means of a pressure-operated ULV (ultra low volume) sprayer. Influence to the crops and weeds were observed on the 30th day after the spray of the herbicides. The results are shown in Table 4 in which the degree of damages of each test plant and the degree of injury to each crop are shown in a similar manner to Test 2.

barnyardgrass [2] = experiment: Upland foliar application test (Test 3); assay type: in vivo; settings: 30 g ai/a, foliar spray at 2-3 leaves, 30th day
Method: as §6

common lambsquarters = experiment: Upland foliar application test (Test 3); assay type: in vivo; settings: 30 g ai/a, foliar spray at 2-3 leaves, 30th day
Method: as §6

redroot pigweed = experiment: Upland foliar application test (Test 3); assay type: in vivo; settings: 30 g ai/a, foliar spray at 2-3 leaves, 30th day
Method: as §6

green foxtail = experiment: Upland foliar application test (Test 3); assay type: in vivo; settings: 30 g ai/a, foliar spray at 2-3 leaves, 30th day
Method: as §6

johnsongrass = experiment: Upland foliar application test (Test 3); assay type: in vivo; settings: 30 g ai/a, foliar spray at 2-3 leaves, 30th day
Method: as §6

large crabgrass = experiment: Upland foliar application test (Test 3); assay type: in vivo; settings: 30 g ai/a, foliar spray at 2-3 leaves, 30th day
Method: as §6

narrowleaf waterplantain = experiment: Petri dish test (Test 6); assay type: in vivo; settings: 336 h; seeds on filter paper, 25° C., 14 days; read-out: I80 (ppm)
Method: A filter paper was placed in each glass-made Petri dish having a diameter of 9 cm. A compound dissolved in acetone was added in a predetermined amount. The filter paper was then dried in air to remove acetone. Seeds of narrowleaf waterplantain were placed on the filter paper and 10 ml of water were poured into the Petri dish. The seeds were allowed to grow at 25° C. in a bright room. Fourteen days later, the state of growth of narrowleaf water-plantain was observed.
In the table, the degree of damages of the test plant was determined by comparing the state of growth of the plant with that of the plant in an untreated group and is shown in accordance with the following standard: […]

[3] = test system: ALS (acetolactate syntase); experiment: ALS enzyme assay (Test 1); assay type: biochemical, pea; settings: 1,000 ppm (0.5 mg/0.5 ml)
Method: as §1, §2, §3, §4, §5

soybean = experiment: Upland soil application test (Test 2), crop injury; assay type: in vivo; settings: 30 g ai/a, soil spray before emergence, 30 days later
Method: (§7) Resin-made 1/2500-are pots were filled with the soil of an upland field. After they were fertilized, soybean, peanut and cotton were seeded and 2-3 cm soil covering was applied. Seeds of redroot pigweed, common lambsquarters, barnyardgrass, green foxtail, large crabgrass, foxtail meadow and johnsongrass had been uniformly mixed with the soil. They were allowed to germinate in a green house. One day later (before emergence of weeds), a wettable powder prepared from a predetermined amount of each test compound in a similar manner to the method described in Formulation Example 1 was diluted with water and then sprayed evenly at an application rate equal to 10 l per are onto the surface of the soil by means of a pressure-operated ULV (ultra low volume) sprayer. Influence to the crops and weeds were observed 30 days later. The results are shown in Table 3, in which the degree of damages of each test plant and the degree of injury to each crop were determined by comparing the air-dried weights of the test plant and crop with those of the corresponding plant and crop in untreated pots and are shown in accordance with the following standard: […]

cotton = experiment: Upland soil application test (Test 2), crop injury; assay type: in vivo; settings: 30 g ai/a, soil spray before emergence, 30 days later
Method: as §7

peanut = experiment: Upland soil application test (Test 2), crop injury; assay type: in vivo; settings: 30 g ai/a, soil spray before emergence, 30 days later
Method: as §7

barnyardgrass [4] = experiment: Treatment of soil under submerged condition, pre-emergence (Test 4); assay type: in vivo; settings: 30 g ai/a granule, 30 days later
Method: (§8) 1/5000-are Wagner pots were filled with soil. Seeds or tubers of barnyardgrass, Monochoria vaginalis, bulrush, Sagittaria pygmaea, Cyperus seroylnus and Eleocharis kuroguwai were seeded or planted under submerged condition. Two pairs of rice seedlings (2-3 leaf stage), which had been reared in advance, were transplanted to each pot and were allowed to germinate in a green house. Each pair consisted of two rice seedlings. One day later (before emergence of weeds), each pot was treated with a granule which had been prepared by processing a predetermined amount of the test composition in accordance with a similar method to the method described in Formulation Example 9. The state of emergence of weeds and the state of injury of rice were observed 30 days later.
(§9) In the table, the degrees of damages of the test plants and the degrees of injury of rice are shown in a similar manner to Example 2.

Sagittaria pygmaea = experiment: as above; assay type: in vivo; settings: 30 g ai/a granule, 30 days later
Method: as §8, §9

bulrush = experiment: as above; assay type: in vivo; settings: 30 g ai/a granule, 30 days later
Method: as §8, §9

Row | SMILES | Inhibitory activity (%) Barnyardgrass [1] [%] | Herbicidal effects Foxtail meadow (foxtail meadow) | Herbicidal effects Barnyardgrass (barnyardgrass [2]) | Herbicidal effects Common lambsquarters (common lambsquarters) | Herbicidal effects Redroot pigweed (redroot pigweed) | Herbicidal effects Green foxtail (green foxtail) | Herbicidal effects Johnsongrass (johnsongrass) | Herbicidal effects Large crabgrass (large crabgrass) | IC80 (narrowleaf waterplantain) [µg/mL] | Inhibitory activity (%) Pea [3] [%] | Injury Soybean (soybean) | Injury Cotton (cotton) | Injury Peanut (peanut) | Herbicidal effects Barnyardgrass (barnyardgrass [4]) | Herbicidal effects Sagittaria Pygmaea (Sagittaria pygmaea) | Herbicidal effects Bulrush (bulrush)
1 | COc1cc(OC)nc(Oc2ccccc2C=NOCC=Cc2ccccc2C)n1 [Compound No. 39] | 92 | 5 (0-5 (Death)) | 5 (0-5 (Death)) | 4 (6-10 (Severe damages)) | 5 (0-5 (Death)) | 5 (0-5 (Death)) | 5 (0-5 (Death)) | 5 (0-5 (Death)) | 2 (≈ 4.93 µM) | 0 | 0 (91-100 (No damages)) | 0 (91-100 (No damages)) | 0 (91-100 (No damages)) | 5 (0-5 (Death)) | 4 (6-10 (Severe damages)) | 4 (6-10 (Severe damages))
2 | COc1cc(OC)nc(Oc2ccccc2C=NOCc2cccc3ccccc23)n1 [compound 22] | 35 | 5 (0-5 (Death)) | 5 (0-5 (Death)) | 4 (6-10 (Severe damages)) | 5 (0-5 (Death)) | 5 (0-5 (Death)) | 5 (0-5 (Death)) | 5 (0-5 (Death)) | 100 (≈ 241 µM) | 0 | 0 (91-100 (No damages)) | 0 (91-100 (No damages)) | 0 (91-100 (No damages)) | 3 (11-40 (Medium damages)) | 3 (11-40 (Medium damages)) | 3 (11-40 (Medium damages))
3 | C=C(Cl)CON=Cc1ccccc1Oc1nc(OC)cc(OC)n1 [Compound No. 14] | 56 | 5 (0-5 (Death)) | 5 (0-5 (Death)) | 4 (6-10 (Severe damages)) | 4 (6-10 (Severe damages)) | 5 (0-5 (Death)) | 5 (0-5 (Death)) | 5 (0-5 (Death)) | 100 (≈ 286 µM) | 0 | 0 (91-100 (No damages)) | 0 (91-100 (No damages)) | 0 (91-100 (No damages)) | 5 (0-5 (Death)) | 5 (0-5 (Death)) | 3 (11-40 (Medium damages))
4 | COc1cc(OC)nc(Oc2ccccc2C=NOCC=Cc2ccc(Cl)cc2)n1 [Compound No. 28] | 91 | 5 (0-5 (Death)) | 5 (0-5 (Death)) | 4 (6-10 (Severe damages)) | 4 (6-10 (Severe damages)) | 4 (6-10 (Severe damages)) | 5 (0-5 (Death)) | 4 (6-10 (Severe damages)) | 2 (≈ 4.7 µM) | 8 | 0 (91-100 (No damages)) | 0 (91-100 (No damages)) | 0 (91-100 (No damages)) | 3 (11-40 (Medium damages)) | 3 (11-40 (Medium damages)) | 3 (11-40 (Medium damages))
5 | C=C(C)CON=Cc1ccccc1Oc1nc(OC)cc(OC)n1 [compound 5] | 64 | 5 (0-5 (Death)) | 5 (0-5 (Death)) | 4 (6-10 (Severe damages)) | 4 (6-10 (Severe damages)) | 5 (0-5 (Death)) | 5 (0-5 (Death)) | 5 (0-5 (Death)) | 17 (≈ 51.6 µM) | 0 | 0 (91-100 (No damages)) | 0 (91-100 (No damages)) | 0 (91-100 (No damages)) | 4 (6-10 (Severe damages)) | 5 (0-5 (Death)) | 4 (6-10 (Severe damages))
